Measurements as given in patent US4755511A, “Tricyclic pyridazinone compounds” (Smith Kline & French Laboratories Limited, priority 1984, dated 1988).

Columns and labels:
[1] = Curran et al, J. Med. Chem. 1974, p 273; cited from earlier work
ventricular strips = test: Cardiac stimulant activity in vitro: force of contraction of electrically stimulated guinea pig right ventricular strips; conditions: Cavia porcellus; 50% increase in force of contraction; 0.5 Hz stimulation, Krebs Henseleit solution, 37° C.
Description: The compounds of formula (I) and their pharmaceutically acceptable salts are tested for cardiac stimulant activity following a procedure based on that of S. […]. Pharm & Exp. Therapeutics, 200, 352-362 (1977)). Guinea pigs (500-700 g) of either sex are sacrificed and the hearts are quickly removed and transferred to a dissecting dish containing oxygenated bathing fluid. While in the bathing medium, the right ventricle is cut into two strips. The strips are each suspended in a 75 ml bath containing Krebs Henseleit solution at 37° C. and the bath is bubbled with 95% oxygen and 5% carbon dioxide. The ventricular strips are electrically stimulated at a frequency of 0.5 Hz, at double the threshold voltage. A resting tension of 1.0 g is applied to the strips and the tension is kept constant by readjustment during an equilibration period of 60 minutes. The bathing fluid is frequently changed during this period. When a steady base line is obtained, a compound under test is added to the bathing fluid and a cumulative concentration response curve is plotted. […] In the above test method the compounds of the Examples gave the following data : […]

[2] = tested on: left ventricular dp/dt max; test: Cardiac stimulant activity in vivo in anaesthetised cats (left ventricular dp/dt max, i.v.); set-up: species or system cat; key to Relative Duration: ***: Long; **: medium; *: short; conditions: for ED50: Felis catus, read-out: ED50 (dose to increase left ventricular dp/dt max by 50%), intravenous, anaesthetised cats pretreated with ganglion blocker (mecamylamine or pempidine) and propranolol; for Relative Duration: estimated in the anaesthetised cats following i.v. administration

Row | SMILES | hypotensive activity [1] | EC50 (ventricular strips) [µM] | ED50 [2] [µmol/kg] | Relative Duration [2]
1 | COc1ccc2c(c1)CCC1CC(=O)NN=C21 (stereo not drawn) [8-Methoxy-4,4a,5,6-tetrahydrobenzo[h]cinnolin-3[2H]-one] | not showing any hypotensive activity |  |  | 
2 | Nc1ccc2c(c1)CC1CC(=O)NN=C21 (stereo not drawn) [Example 1, 7-Amino-4,4a-dihydro-[5H]-indeno[1,2-c]pyridazin-3[2H]-one] |  | 14 | 1.8 | **
3 | CC12CC(=O)NN=C1c1ccc(C(N)=O)cc1C2 (stereo not drawn) [Example 3, 7-Carboxamido-4,4a-dihydro-4a-methyl-[5H]-indeno[1,2-C]-pyridazin-3[2H]-one] |  | 27 | 0.4 | *
4 | COc1ccc2c(c1)CC1(C)CC(=O)NN=C21 (stereo not drawn) [Example 7, 4,4a-Dihydro-7-methoxy-4a-methyl-[5H]-indeno[1,2-c]-pyridazin-3[2H]-one] |  | 21 | 1.4 | **
5 | COc1ccc2c(c1)CCC1(C)CC(=O)NN=C21 (stereo not drawn) [Example 10, 8-Methoxy-4a-methyl-4,4a,5,6-tetrahydrobenzo[h]cinnolin-3[2H]-one] |  | 23 | 0.2 | *
6 | CN=C(NC#N)Nc1ccc2c(c1)CCC1CC(=O)NN=C21 (stereo not drawn) [Example 15, 8-(N^2 -Methyl-N^3-cyanoguanidino)-4,4a,5,6-tetrahydrobenzo-[h]cinnolin-3[2H]-one] |  | 22 | 1.2 | **
7 | NC(=O)c1ccc2c(c1)CCC1CC(=O)NN=C21 (stereo not drawn) [Example 17, 8-Carboxamido-4,4a,5,6-tetrahydrobenzo[h]cinnolin-3[2H]-one] |  |  | 1.2 | **
8 | CC12CCc3cc(C(N)=O)ccc3C1=NNC(=O)C2 (stereo not drawn) [Example 19, 8-Carboxamido-4a-methyl-4,4a,5,6-tetrahydrobenzo[h]cinnolin-3[2H]-one] |  |  | 1.6 | **
9 | COc1ccc2c(c1)CCc1cc(=O)[nH]nc1-2 [dehydro analogue, 5,6-Dihydro-8-methoxybenzo[h]cinnolin-3[2H]-one] | not showing any hypotensive activity |  |  | 
